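A five-concentration, 48-hour dose response in 96-well plates underlies each endpoint, interpolated linearly between surrounding concentrations. Here, GI50 denotes the concentration required for 50% inhibition of growth. Definition used: TGI = concentration required for complete inhibition of growth.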
Legend:
Test in all cases: inhibition of tumour cell growth, NCI panel, 48 h
786-0 renal = tested on: 786-0 renal
A549 NSCLC = tested on: A549 NSCLC
COLO 205 colon = tested on: COLO 205 colon
HCC-2998 colon = tested on: HCC-2998 colon
K-562 leukemia = tested on: K-562 leukemia
OVCAR-3 ovarian = tested on: OVCAR-3 ovarian
PC-3 prostate = tested on: PC-3 prostate
SF-268 CNS = tested on: SF-268 CNS
SK-MEL-2 melanoma = tested on: SK-MEL-2 melanoma
UACC-62 melanoma = tested on: UACC-62 melanoma

Structure (SMILES) | GI50 (786-0 renal) | TGI (786-0 renal) | GI50 (A549 NSCLC) | TGI (A549 NSCLC) | GI50 (COLO 205 colon) | TGI (COLO 205 colon) | GI50 (HCC-2998 colon) | TGI (HCC-2998 colon) | GI50 (K-562 leukemia) | TGI (K-562 leukemia) | GI50 (OVCAR-3 ovarian) | TGI (OVCAR-3 ovarian) | GI50 (PC-3 prostate) | TGI (PC-3 prostate) | GI50 (SF-268 CNS) | TGI (SF-268 CNS) | GI50 (SK-MEL-2 melanoma) | TGI (SK-MEL-2 melanoma) | GI50 (UACC-62 melanoma) | TGI (UACC-62 melanoma)
N[C@@H]1CCCC[C@H]1N.O=C([O-])C(=O)[O-].[Pt+4] | 0.752 µM | 42.9 µM | 0.615 µM | > 84.1 µM | 7.73 µM | > 74.8 µM | 0.618 µM | 10 µM | 0.854 µM | > 95.3 µM | 5.71 µM | 25.9 µM | 17.9 µM | > 100 µM | 4.12 µM | > 100 µM | 5.15 µM | 52.9 µM | 2.2 µM | 23.5 µM
O=C(c1ccco1)c1nc2cc(Cl)ccc2[n+]([O-])c1C(F)(F)F | > 100 µM | > 100 µM | 63.3 µM | > 100 µM | > 100 µM | > 100 µM | 18.5 µM | 34.9 µM | 22.2 µM | 54.3 µM | > 100 µM | > 100 µM | 13.7 µM | 41.4 µM | 71.1 µM | > 100 µM | > 100 µM | > 100 µM | 40.7 µM | > 100 µM
O=c1ccn(C2OC(CO/N=C/c3ccc(O)c(O)c3O)C(O)C2O)c(=O)[nH]1 (stereo not given) | > 100 µM | > 100 µM | 54.3 µM | > 100 µM | 14.7 µM | 30.6 µM | > 100 µM | > 100 µM | 21.7 µM | 78.5 µM | 13.6 µM | 27.7 µM | 25.1 µM | 86.9 µM | 26.5 µM | 85.6 µM | 57.4 µM | > 100 µM | 76.4 µM | > 100 µM
O=C1c2cc3c(cc2-c2c1c1ccc(Cl)cc1c(=O)n2CCCNCCO)OCO3 | 0.119 µM | 0.278 µM | 0.115 µM | 2.38 µM | 1.09 µM | 2.6 µM | 1.15 µM | 2.46 µM | 0.108 µM | 0.355 µM | 1.32 µM | 2.83 µM | 1.07 µM | 2.55 µM | 0.0668 µM | 2.13 µM | 1.97 µM | 3.54 µM | 0.0427 µM | 1.6 µM
Cc1cc(S(N)(=O)=O)c(S/C(CC(C)C)=N\Nc2ccc([N+](=O)[O-])cc2)cc1Cl | 7.15 µM | 19.8 µM | 9.46 µM | 27.2 µM | 6.46 µM | 20.9 µM | 2.46 µM | 6.27 µM | 5.82 µM | 97 µM | 3.19 µM | 7.07 µM | 3.16 µM | 11.9 µM | 7.21 µM | 23.1 µM | 8.22 µM | 34.6 µM | 3.13 µM | 8.89 µM
Ic1ccccc1-c1ccccc1 | > 100 µM | > 100 µM | > 100 µM | > 100 µM | > 100 µM | > 100 µM | > 100 µM | > 100 µM | > 100 µM | > 100 µM | > 100 µM | > 100 µM | > 100 µM | > 100 µM | > 100 µM | > 100 µM | 76 µM | > 100 µM | 46.7 µM | > 100 µM
